# Results from patent publication US20210403435A1, “HERBICIDAL COMPOUNDS” (SYNGENTA CROP PROTECTION AG, priority 2018, published 2021).
# How the values were obtained:
# Experiment in all cases: Post-emergence efficacy, glasshouse, evaluated after 13 days
# Type in all cases: in vivo
# [1] = tested on: Lolium perenne (LOLPE); conditions: Lolium perenne, 312 h; post-emergence application, 500 g/Ha, evaluated after 13 days; read-out: Control of weed species LOLPE (100=total damage to plant; 0=no damage to plant)
# Procedure, shortened: (§1)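 Plants grown 14 days in glasshouse (24/16° C., 14 h light, 65% humidity), then sprayed post-emergence with compound formulated in IF50 and diluted in 0.25% or 1% Empicol ESC70 + 1% ammonium sulphate. Damage scored after 13 days (0 none to 100 total).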
# [2] = tested on: Chenopodium album (CHEAL); conditions: Chenopodium album, 312 h; post-emergence application, 500 g/Ha, evaluated after 13 days; read-out: Control of weed species CHEAL (100=total damage to plant; 0=no damage to plant)
# Procedure, shortened: as §1
# [3] = tested on: Euphorbia heterophylla (EPHHL); conditions: Euphorbia heterophylla, 312 h; post-emergence application, 500 g/Ha, evaluated after 13 days; read-out: Control of weed species EPHHL (100=total damage to plant; 0=no damage to plant)
# Procedure, shortened: as §1
# [4] = tested on: Setaria faberi (SETFA); conditions: Setaria faberi, 312 h; post-emergence application, 500 g/Ha, evaluated after 13 days; read-out: Control of weed species SETFA (100=total damage to plant; 0=no damage to plant)
# Procedure, shortened: as §1
# [5] = tested on: Digitaria sanguinalis (DIGSA); conditions: Digitaria sanguinalis, 312 h; post-emergence application, 500 g/Ha, evaluated after 13 days; read-out: Control of weed species DIGSA (100=total damage to plant; 0=no damage to plant)
# Procedure, shortened: as §1
# [6] = tested on: Ipomoea hederacea (IPOHE); conditions: Ipomoea hederacea, 312 h; post-emergence application, 500 g/Ha, evaluated after 13 days; read-out: Control of weed species IPOHE (100=total damage to plant; 0=no damage to plant)
# Procedure, shortened: as §1
# [7] = tested on: Amaranthus palmeri (AMAPA); conditions: Amaranthus palmeri, 312 h; post-emergence application, 500 g/Ha, evaluated after 13 days; read-out: Control of weed species AMAPA (100=total damage to plant; 0=no damage to plant)
# Procedure, shortened: as §1
# [8] = tested on: Eleusine indica (ELEIN); conditions: Eleusine indica, 312 h; post-emergence application, 500 g/Ha, evaluated after 13 days; read-out: Control of weed species ELEIN (100=total damage to plant; 0=no damage to plant)
# Procedure, shortened: as §1
# [9] = tested on: Echinochloa crus-galli (ECHCG); conditions: Echinochloa crus-galli, 312 h; post-emergence application, 500 g/Ha, evaluated after 13 days; read-out: Control of weed species ECHCG (100=total damage to plant; 0=no damage to plant)
# Procedure, shortened: as §1
structure (smiles),measurement,setting,value
O=C(c1cc[n+](CCS(=O)(=O)[O-])nc1)N1CCCCC1 [Compound A27],pest or weed control at 500 g/ha,[1],30%
same,pest or weed control at 500 g/ha,[2],40%
same,pest or weed control at 500 g/ha,[3],70%
same,pest or weed control at 500 g/ha,[4],40%
same,pest or weed control at 500 g/ha,[5],40%
same,pest or weed control at 500 g/ha,[6],30%
same,pest or weed control at 500 g/ha,[7],70%
same,pest or weed control at 500 g/ha,[8],10%
same,pest or weed control at 500 g/ha,[9],40%
CCNC(=O)c1cc[n+](CC(=O)OC)nc1 [Compound A89],pest or weed control at 500 g/ha,[1],0%
same,pest or weed control at 500 g/ha,[2],0%
same,pest or weed control at 500 g/ha,[3],20%
same,pest or weed control at 500 g/ha,[4],0%
same,pest or weed control at 500 g/ha,[5],0%
same,pest or weed control at 500 g/ha,[6],20%
same,pest or weed control at 500 g/ha,[7],0%
same,pest or weed control at 500 g/ha,[8],0%
same,pest or weed control at 500 g/ha,[9],0%
O=C(NCC(F)(F)F)c1cc[n+](CCS(=O)(=O)[O-])nc1 [Compound A36],pest or weed control at 500 g/ha,[1],20%
same,pest or weed control at 500 g/ha,[2],90%
same,pest or weed control at 500 g/ha,[3],50%
same,pest or weed control at 500 g/ha,[4],60%
same,pest or weed control at 500 g/ha,[5],60%
same,pest or weed control at 500 g/ha,[6],40%
same,pest or weed control at 500 g/ha,[7],100%
same,pest or weed control at 500 g/ha,[8],60%
same,pest or weed control at 500 g/ha,[9],30%
CN1CCN(C(=O)c2cc[n+](CCC(=O)O)nc2)CC1 [Compound A133],pest or weed control at 500 g/ha,[1],0%
same,pest or weed control at 500 g/ha,[2],10%
same,pest or weed control at 500 g/ha,[3],20%
same,pest or weed control at 500 g/ha,[4],70%
same,pest or weed control at 500 g/ha,[5],90%
same,pest or weed control at 500 g/ha,[6],10%
same,pest or weed control at 500 g/ha,[7],20%
same,pest or weed control at 500 g/ha,[8],50%
same,pest or weed control at 500 g/ha,[9],60%
C=CCNC(=O)c1cc[n+](CCNS(=O)(=O)[O-])nc1 [Compound A140],pest or weed control at 500 g/ha,[1],20%
same,pest or weed control at 500 g/ha,[2],100%
same,pest or weed control at 500 g/ha,[3],90%
same,pest or weed control at 500 g/ha,[4],90%
same,pest or weed control at 500 g/ha,[5],90%
same,pest or weed control at 500 g/ha,[6],60%
same,pest or weed control at 500 g/ha,[7],100%
same,pest or weed control at 500 g/ha,[8],100%
same,pest or weed control at 500 g/ha,[9],70%
C=CCNC(=O)c1cc[n+](CCS(=O)(=O)[O-])nc1 [Compound A18],pest or weed control at 500 g/ha,[1],70%
same,pest or weed control at 500 g/ha,[2],90%
same,pest or weed control at 500 g/ha,[3],70%
same,pest or weed control at 500 g/ha,[4],50%
same,pest or weed control at 500 g/ha,[5],80%
same,pest or weed control at 500 g/ha,[6],70%
same,pest or weed control at 500 g/ha,[7],100%
same,pest or weed control at 500 g/ha,[8],90%
same,pest or weed control at 500 g/ha,[9],90%
CNC(=O)c1cc[n+](CCCS(=O)(=O)[O-])nc1 [Compound A11],pest or weed control at 500 g/ha,[1],30%
same,pest or weed control at 500 g/ha,[2],80%
same,pest or weed control at 500 g/ha,[3],70%
same,pest or weed control at 500 g/ha,[4],20%
same,pest or weed control at 500 g/ha,[5],70%
same,pest or weed control at 500 g/ha,[6],30%
same,pest or weed control at 500 g/ha,[7],40%
same,pest or weed control at 500 g/ha,[8],10%
same,pest or weed control at 500 g/ha,[9],70%
N#CCCNC(=O)c1cc[n+](CCC(=O)O)nc1 [Compound A113],pest or weed control at 500 g/ha,[1],90%
same,pest or weed control at 500 g/ha,[2],80%
same,pest or weed control at 500 g/ha,[3],90%
same,pest or weed control at 500 g/ha,[4],100%
same,pest or weed control at 500 g/ha,[5],100%
same,pest or weed control at 500 g/ha,[6],30%
same,pest or weed control at 500 g/ha,[7],100%
same,pest or weed control at 500 g/ha,[8],100%
same,pest or weed control at 500 g/ha,[9],90%
CNC(=O)c1cn[n+](CCC(=O)O)cc1C [Compound A53],pest or weed control at 500 g/ha,[1],20%
same,pest or weed control at 500 g/ha,[2],70%
same,pest or weed control at 500 g/ha,[3],60%
same,pest or weed control at 500 g/ha,[4],90%
same,pest or weed control at 500 g/ha,[5],80%
same,pest or weed control at 500 g/ha,[6],50%
same,pest or weed control at 500 g/ha,[7],90%
same,pest or weed control at 500 g/ha,[8],40%
same,pest or weed control at 500 g/ha,[9],70%
